# Tests used:
# [1] = Oral bioavailability in rat at 5 mg/kg; format: ADME, organism-based; details: in vivo
# [2] = Antitumour activity against human LG0787F cells xenografted in NSG mouse at 1 mg/kg/day infused continuously over 6 days using Alzet pump; format: functional; details: 144 h, time 6 day, read-out: TGI
# NCI-H1792 = test: Anticancer activity against human NCI-H1792 cells; format: functional, cell-based
# [3] = Efflux ratio of permeability in human Caco-2 cells; format: ADME, cell-based
# [4] = Cmax in mouse at 30 mg/kg, po; format: ADME, organism-based; design: dose 30 mg/kg, route po; details: in vivo
# [5] = Antitumour activity against patient-derived human PAT014 cells xenografted in mouse model at 1.6 mg/kg, po bid, 5 days on and 2 days off for 2 weeks; format: functional; details: PAT014, 120 h, time 5 day, read-out: TGI
# DMS-53 = test: Anticancer activity against human DMS-53 cells; format: functional, cell-based
# NCI-H2009 = test: Anticancer activity against human NCI-H2009 cells; format: functional, cell-based
# [6] = Antitumour activity against patient-derived human BR1977F cells xenografted in mouse model at 1.6 mg/kg, po bid, 5 days on and 2 days off for 2 weeks; format: functional; details: 120 h, time 5 day, read-out: TGI
# NCI-H647 = test: Anticancer activity against human NCI-H647 cells; format: functional, cell-based
# [7] = Anticancer activity against human HCC1588 cells; format: functional, cell-based
# [8] = Antitumour activity against human LG0787F cells xenografted in po dosed NSG mouse assessed as minimum effective concentration; format: functional; details: dose 0.25 mg/kg/day
# [9] = biological target: Histone acetyltransferase p300 (Homo sapiens) (UniProt Q09472)
# Chain of Histone acetyltransferase p300 (Homo sapiens) (Q09472 whole entry): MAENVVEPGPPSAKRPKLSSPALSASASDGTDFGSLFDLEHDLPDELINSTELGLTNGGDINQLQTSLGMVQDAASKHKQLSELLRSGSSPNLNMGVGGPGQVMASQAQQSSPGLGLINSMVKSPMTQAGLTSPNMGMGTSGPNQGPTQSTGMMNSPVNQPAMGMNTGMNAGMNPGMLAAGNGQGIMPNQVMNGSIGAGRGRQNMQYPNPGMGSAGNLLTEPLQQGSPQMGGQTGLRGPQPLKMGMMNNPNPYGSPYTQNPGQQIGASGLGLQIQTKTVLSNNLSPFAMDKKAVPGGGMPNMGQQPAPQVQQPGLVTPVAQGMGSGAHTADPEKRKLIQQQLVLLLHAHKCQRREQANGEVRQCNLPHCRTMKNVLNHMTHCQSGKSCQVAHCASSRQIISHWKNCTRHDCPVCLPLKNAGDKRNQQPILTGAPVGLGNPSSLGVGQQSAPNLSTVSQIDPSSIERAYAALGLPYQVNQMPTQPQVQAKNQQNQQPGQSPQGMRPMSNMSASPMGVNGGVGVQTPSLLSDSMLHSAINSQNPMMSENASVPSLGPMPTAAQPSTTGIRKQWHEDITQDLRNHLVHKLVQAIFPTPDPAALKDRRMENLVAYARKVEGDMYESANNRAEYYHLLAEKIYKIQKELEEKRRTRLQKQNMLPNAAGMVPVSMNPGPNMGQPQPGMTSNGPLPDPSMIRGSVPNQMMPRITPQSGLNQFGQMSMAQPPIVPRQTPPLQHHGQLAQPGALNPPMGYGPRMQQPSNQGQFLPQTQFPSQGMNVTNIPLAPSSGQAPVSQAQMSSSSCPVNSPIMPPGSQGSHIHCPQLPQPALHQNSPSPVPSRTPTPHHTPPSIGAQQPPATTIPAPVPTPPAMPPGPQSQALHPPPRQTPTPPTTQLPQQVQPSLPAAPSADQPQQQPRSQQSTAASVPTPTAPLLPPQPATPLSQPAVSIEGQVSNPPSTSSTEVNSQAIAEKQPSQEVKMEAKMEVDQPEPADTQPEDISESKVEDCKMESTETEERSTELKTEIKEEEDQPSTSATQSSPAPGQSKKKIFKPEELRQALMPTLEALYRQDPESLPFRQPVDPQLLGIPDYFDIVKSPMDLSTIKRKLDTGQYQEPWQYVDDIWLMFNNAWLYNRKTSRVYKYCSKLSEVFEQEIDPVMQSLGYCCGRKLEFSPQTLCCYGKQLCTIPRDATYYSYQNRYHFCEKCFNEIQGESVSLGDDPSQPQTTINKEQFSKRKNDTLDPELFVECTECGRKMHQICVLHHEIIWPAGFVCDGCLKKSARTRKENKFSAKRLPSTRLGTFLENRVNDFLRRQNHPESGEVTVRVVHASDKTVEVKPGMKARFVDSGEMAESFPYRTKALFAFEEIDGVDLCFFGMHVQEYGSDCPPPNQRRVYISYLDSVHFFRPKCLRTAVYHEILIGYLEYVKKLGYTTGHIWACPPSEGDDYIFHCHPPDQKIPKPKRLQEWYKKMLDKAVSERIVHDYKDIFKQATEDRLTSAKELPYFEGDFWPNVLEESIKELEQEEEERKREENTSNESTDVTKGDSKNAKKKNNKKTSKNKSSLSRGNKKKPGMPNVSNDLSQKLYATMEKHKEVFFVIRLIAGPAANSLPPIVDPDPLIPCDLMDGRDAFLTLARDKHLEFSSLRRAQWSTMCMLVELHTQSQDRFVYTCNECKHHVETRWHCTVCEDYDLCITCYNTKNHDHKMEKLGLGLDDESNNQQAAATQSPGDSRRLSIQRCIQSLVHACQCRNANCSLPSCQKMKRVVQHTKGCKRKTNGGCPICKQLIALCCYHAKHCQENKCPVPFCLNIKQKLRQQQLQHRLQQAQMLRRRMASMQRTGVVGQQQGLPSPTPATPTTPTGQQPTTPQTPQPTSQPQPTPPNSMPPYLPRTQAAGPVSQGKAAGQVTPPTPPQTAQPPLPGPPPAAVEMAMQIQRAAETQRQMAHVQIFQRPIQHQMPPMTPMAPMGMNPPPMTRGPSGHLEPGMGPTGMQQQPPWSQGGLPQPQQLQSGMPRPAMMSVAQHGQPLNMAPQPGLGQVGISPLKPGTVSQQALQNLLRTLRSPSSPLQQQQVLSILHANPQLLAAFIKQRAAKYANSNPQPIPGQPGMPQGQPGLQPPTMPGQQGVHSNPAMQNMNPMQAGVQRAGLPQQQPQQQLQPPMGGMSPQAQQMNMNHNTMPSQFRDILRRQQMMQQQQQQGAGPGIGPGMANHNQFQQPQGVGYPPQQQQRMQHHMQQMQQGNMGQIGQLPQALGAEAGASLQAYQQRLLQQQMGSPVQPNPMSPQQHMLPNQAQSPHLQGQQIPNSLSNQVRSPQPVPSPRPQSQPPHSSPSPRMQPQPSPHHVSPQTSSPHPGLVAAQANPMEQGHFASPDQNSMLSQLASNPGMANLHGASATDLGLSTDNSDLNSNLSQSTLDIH
# Description: Binding affinity to EP300 (unknown origin) assessed as change in melting temperature of protein
# [10] = Antitumour activity against patient-derived human LGO52.0F/Cis/R48 cells xenografted in mouse model at 1.6 mg/kg, po bid, 5 days on and 2 days off for 2 weeks; format: functional; details: LGO52.0F/Cis/R48, 120 h, time 5 day, read-out: TGI
# [11] = Antitumour activity against patient-derived human PAT138 cells xenografted in mouse model at 1.6 mg/kg, po bid, 5 days on and 2 days off for 2 weeks; format: functional; details: PAT138, 120 h, time 5 day, read-out: TGI
# [12] = Volume of distribution at steady state in mouse at 1.75 mg/kg, iv; format: ADME, organism-based; details: in vivo, read-out: Vdss
# [13] = biological target: CREB-binding protein (Homo sapiens) (UniProt Q92793)
# Description: Binding affinity to CREBBP (unknown origin) assessed as change in melting temperature of protein
# Cytochrome P450 1A2 = Cytochrome P450 1A2 (Homo sapiens, UniProt P05177); test: Inhibition of CYP1A2 (unknown origin); format: ADME
# Chain of Cytochrome P450 1A2 (P05177 whole entry): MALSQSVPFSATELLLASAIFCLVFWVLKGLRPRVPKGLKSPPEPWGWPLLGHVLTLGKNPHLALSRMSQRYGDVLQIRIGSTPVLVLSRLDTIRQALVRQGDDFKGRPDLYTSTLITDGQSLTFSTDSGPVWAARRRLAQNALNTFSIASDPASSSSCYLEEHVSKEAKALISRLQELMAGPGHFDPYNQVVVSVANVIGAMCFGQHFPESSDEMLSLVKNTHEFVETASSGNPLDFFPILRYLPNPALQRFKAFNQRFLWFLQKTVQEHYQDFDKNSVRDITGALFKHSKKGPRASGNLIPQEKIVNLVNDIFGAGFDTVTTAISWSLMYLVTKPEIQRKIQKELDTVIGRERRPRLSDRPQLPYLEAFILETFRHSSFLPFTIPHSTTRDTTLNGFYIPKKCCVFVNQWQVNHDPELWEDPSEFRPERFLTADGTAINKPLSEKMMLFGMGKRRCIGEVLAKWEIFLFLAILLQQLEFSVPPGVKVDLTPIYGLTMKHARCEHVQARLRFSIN
# Cytochrome P450 2C19 = Cytochrome P450 2C19 (Homo sapiens, UniProt P33261); test: Inhibition of CYP2C19 (unknown origin); format: ADME
# Chain of Cytochrome P450 2C19 (P33261 whole entry): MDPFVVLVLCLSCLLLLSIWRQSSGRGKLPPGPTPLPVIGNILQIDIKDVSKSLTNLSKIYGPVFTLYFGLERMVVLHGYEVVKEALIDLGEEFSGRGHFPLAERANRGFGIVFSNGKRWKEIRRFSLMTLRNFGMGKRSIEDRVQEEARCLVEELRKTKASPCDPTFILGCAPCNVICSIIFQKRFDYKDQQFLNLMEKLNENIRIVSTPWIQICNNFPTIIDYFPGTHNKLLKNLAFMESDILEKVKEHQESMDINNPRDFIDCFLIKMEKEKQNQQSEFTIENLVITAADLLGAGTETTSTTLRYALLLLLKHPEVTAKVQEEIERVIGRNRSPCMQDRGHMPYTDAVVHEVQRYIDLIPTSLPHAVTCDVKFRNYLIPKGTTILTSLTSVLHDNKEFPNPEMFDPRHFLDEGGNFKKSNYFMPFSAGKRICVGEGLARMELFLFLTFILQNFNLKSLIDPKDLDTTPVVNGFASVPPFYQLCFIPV
# [14] = Elimination half life in mouse at 1.75 mg/kg, iv; format: ADME, organism-based; details: in vivo, read-out: beta t1/2 (converted)
# [15] = Anticancer activity against human HCC33 cells; format: functional, cell-based
# [16] = biological target: Bromodomain-containing protein 2 (Homo sapiens, UniProt P25440); test: Inhibition of human BRD2 measured by TR-FRET assay
# Chain of Bromodomain-containing protein 2 (P25440 whole entry): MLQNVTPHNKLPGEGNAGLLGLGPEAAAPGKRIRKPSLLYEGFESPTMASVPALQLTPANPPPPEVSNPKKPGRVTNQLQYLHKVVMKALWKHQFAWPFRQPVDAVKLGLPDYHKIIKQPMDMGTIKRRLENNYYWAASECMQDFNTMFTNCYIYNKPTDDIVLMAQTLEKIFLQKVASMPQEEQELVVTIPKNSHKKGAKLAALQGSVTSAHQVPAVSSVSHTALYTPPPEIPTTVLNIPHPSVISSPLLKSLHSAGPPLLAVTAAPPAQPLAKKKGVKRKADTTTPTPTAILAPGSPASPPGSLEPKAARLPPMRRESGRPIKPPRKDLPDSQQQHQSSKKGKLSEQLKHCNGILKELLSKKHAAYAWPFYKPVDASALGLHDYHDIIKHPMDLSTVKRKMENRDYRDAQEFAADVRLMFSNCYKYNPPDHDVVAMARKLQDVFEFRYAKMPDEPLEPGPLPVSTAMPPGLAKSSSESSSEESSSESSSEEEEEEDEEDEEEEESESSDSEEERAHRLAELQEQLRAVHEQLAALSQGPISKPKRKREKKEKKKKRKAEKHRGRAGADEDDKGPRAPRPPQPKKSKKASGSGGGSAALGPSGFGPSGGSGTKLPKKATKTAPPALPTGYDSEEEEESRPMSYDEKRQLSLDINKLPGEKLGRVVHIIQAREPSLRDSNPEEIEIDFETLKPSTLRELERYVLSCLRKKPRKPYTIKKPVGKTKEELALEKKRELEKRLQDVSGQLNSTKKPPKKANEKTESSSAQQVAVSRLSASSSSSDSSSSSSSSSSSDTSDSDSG
# NCI-H1623 = test: Anticancer activity against human NCI-H1623 cells; format: functional, cell-based
# NCI-H23 = test: Anticancer activity against human NCI-H23 cells; format: functional, cell-based
# [17] = Antitumour activity against patient-derived human PAT140 cells xenografted in mouse model at 1.6 mg/kg, po bid, 5 days on and 2 days off for 2 weeks; format: functional; details: PAT140, 120 h, time 5 day, read-out: TGI
# [18] = Total plasma clearance in mouse at 1.75 mg/kg, iv; format: ADME, organism-based
# [19] = Antitumour activity against patient-derived human PAT157 cells xenografted in mouse model at 1.6 mg/kg, po bid, 5 days on and 2 days off for 2 weeks; format: functional; details: PAT157, 120 h, time 5 day, read-out: TGI
# [20] = Antitumour activity against patient-derived human PAT130 cells xenografted in mouse model at 1.6 mg/kg, po bid, 5 days on and 2 days off for 2 weeks; format: functional; details: PAT130, 120 h, time 5 day, read-out: TGI
# [21] = Permeability coefficient across apical to basolateral side in human Caco-2 cells; format: ADME, cell-based; details: read-out: permeability
# Cytochrome P450 2D6 = Cytochrome P450 2D6 (Homo sapiens, UniProt P10635); test: Inhibition of CYP2D6 (unknown origin); format: ADME
# [22] = Antitumour activity against human LG0787F cells xenografted in NSG mouse assessed as tumour growth inhibition at 1 mg/kg/day, po qd; format: functional; details: read-out: TGI
# [23] = AUC in human LG0787F cells xenografted in NSG mouse at 1 mg/kg/day, po bid; format: ADME, organism-based; design: dose 1 mg/kg/day, route po; details: in vivo
# [24] = Oral bioavailability in mouse at 5 mg/kg; format: ADME, organism-based; details: in vivo
# NCI-H2170 = test: Anticancer activity against human NCI-H2170 cells; format: functional, cell-based
# NCI-H146 = test: Anticancer activity against human NCI-H146 cells; format: functional, cell-based
# [25] = Antitumour activity against patient-derived human BR0851F cells xenografted in mouse model at 1.6 mg/kg, po bid, 5 days on and 2 days off for 2 weeks; format: functional; details: 120 h, time 5 day, read-out: TGI
# SK-LU-1 = test: Anticancer activity against human SK-LU-1 cells; format: functional, cell-based
# HCC95 = test: Anticancer activity against human HCC95 cells; format: functional, cell-based
# [26] = Permeability coefficient across basolateral to apical side in human Caco-2 cells; format: ADME, cell-based; details: read-out: permeability
# [27] = Antitumour activity against patient-derived human PAT129 cells xenografted in mouse model at 1.6 mg/kg, po bid, 5 days on and 2 days off for 2 weeks; format: functional; details: PAT129, 120 h, time 5 day, read-out: TGI
# [28] = Drug concentration at steady state in human LG0787F cells xenografted in NSG mouse at 1 mg/kg/day infused continuously over 6 days using Alzet pump; format: ADME, organism-based; details: in vivo, 144 h, time 6 day
# NCI-H2030 = test: Anticancer activity against human NCI-H2030 cells; format: functional, cell-based
# NCI-H1793 = test: Anticancer activity against human NCI-H1793 cells; format: functional, cell-based
# [29] = Antitumour activity against human LG0787F cells xenografted in po dosed NSG mouse assessed as minimum effective concentration measured after 12 hrs; format: functional; details: dose 0.25 mg/kg/day
# [30] = Antitumour activity against patient-derived human PAT150 cells xenografted in mouse model at 1.6 mg/kg, po bid, 5 days on and 2 days off for 2 weeks; format: functional; details: PAT150, 120 h, time 5 day, read-out: TGI
# [31] = Elimination half life in rat at 1 mg/kg, iv; format: ADME, organism-based; details: in vivo, read-out: beta t1/2 (converted)
# NCI-H1048 = test: Anticancer activity against human NCI-H1048 cells; format: functional, cell-based
# [32] = biological target: Voltage-gated inwardly rectifying potassium channel KCNH2 (Homo sapiens, UniProt Q12809); test: Inhibition of human ERG by flux assay
# [33] = Volume of distribution at steady state in monkey at 0.1 mg/kg, iv; format: ADME, organism-based, Macaca mulatta; details: rhesus monkey, in vivo, read-out: Vdss
# Cytochrome P450 3A4 = Cytochrome P450 3A4 (Homo sapiens, UniProt P08684); test: Inhibition of CYP3A4 (unknown origin); format: ADME
# Chain of Cytochrome P450 3A4 (P08684 whole entry): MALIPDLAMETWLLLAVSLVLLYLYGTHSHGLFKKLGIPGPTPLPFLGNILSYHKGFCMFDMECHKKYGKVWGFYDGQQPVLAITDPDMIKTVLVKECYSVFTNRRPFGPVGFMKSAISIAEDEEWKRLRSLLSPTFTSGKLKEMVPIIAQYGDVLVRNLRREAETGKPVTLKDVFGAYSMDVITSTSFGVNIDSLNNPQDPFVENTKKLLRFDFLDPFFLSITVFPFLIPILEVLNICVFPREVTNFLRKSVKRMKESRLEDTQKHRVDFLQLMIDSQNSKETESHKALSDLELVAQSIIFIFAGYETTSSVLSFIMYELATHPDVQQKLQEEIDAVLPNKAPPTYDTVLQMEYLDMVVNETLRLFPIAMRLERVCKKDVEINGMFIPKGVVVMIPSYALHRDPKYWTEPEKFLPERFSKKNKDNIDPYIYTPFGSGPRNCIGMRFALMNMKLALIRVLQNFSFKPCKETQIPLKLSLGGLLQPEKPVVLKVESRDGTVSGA
structure (smiles),measurement,setting,value
Cc1nnn(C)c1-c1cnc2c3ccc(C(C)(C)O)cc3n([C@H](c3ccccc3)C3CCOCC3)c2c1 [EZOBRESIB],bioavailability,[1],47%
same,inhibition in vivo at 1 mg/kg/day,[2],78%
same,IC50,NCI-H1792,> 500 nM
same,efflux ratio,[3],2.6
same,Cmax,[4],11.9 µM
same,inhibition in vivo at 1.6 mg/kg,[5],70%
same,IC50,DMS-53,0.29 nM
same,IC50,NCI-H2009,> 500 nM
same,inhibition in vivo at 1.6 mg/kg,[6],88%
same,IC50,NCI-H647,441 nM
same,IC50,[7],> 500 nM
same,MEC,[8],0.03 µM
same,ΔTm,[9],9.5 °C
same,inhibition in vivo at 1.6 mg/kg,[10],50%
same,inhibition in vivo at 1.6 mg/kg,[11],75%
same,Vd,[12],1.9 L/kg
same,ΔTm,[13],5.6 °C
same,IC50,Cytochrome P450 1A2,> 20000 nM
same,IC50,Cytochrome P450 2C19,5600 nM
same,half-life,[14],1.8 h
same,IC50,[15],0.23 nM
same,IC50,[16],1.4 nM
same,IC50,NCI-H1623,> 500 nM
same,IC50,NCI-H23,62 nM
same,inhibition in vivo at 1.6 mg/kg,[17],59%
same,clearance,[18],12 mL/min/kg
same,inhibition in vivo at 1.6 mg/kg,[19],23%
same,inhibition in vivo at 1.6 mg/kg,[20],76%
same,Papp A→B,[21],13.3 ×10⁻⁶ cm/s
same,IC50,Cytochrome P450 2D6,> 20000 nM
same,inhibition in vivo at 1 mg/kg/day,[22],50%
same,AUC,[23],0.47 µM·h
same,bioavailability,[24],100%
same,IC50,NCI-H2170,91 nM
same,IC50,NCI-H146,0.41 nM
same,inhibition in vivo at 1.6 mg/kg,[25],49%
same,IC50,SK-LU-1,210 nM
same,IC50,HCC95,8.1 nM
same,Papp B→A,[26],34.7 ×10⁻⁶ cm/s
same,inhibition in vivo at 1.6 mg/kg,[27],65%
same,Css,[28],0.017 µM
same,IC50,NCI-H2030,> 500 nM
same,IC50,NCI-H1793,> 500 nM
same,MEC,[29],10 nM
same,inhibition in vivo at 1.6 mg/kg,[30],62%
same,half-life,[31],4.2 h
same,IC50,NCI-H1048,> 500 nM
same,IC50,[32],> 80000 nM
same,Vd,[33],4.2 L/kg
same,IC50,Cytochrome P450 3A4,> 20000 nM

# From ChEMBL document CHEMBL5053512, “Discovery and Preclinical Pharmacology of an Oral Bromodomain and Extra-Terminal (BET) Inhibitor Using Scaffold-Hopping and Structure-Guided Drug Design” (J Med Chem, 2021)
